Laboratory results as given in patent US8841422B2, “Human androgen receptor alternative splice variants” (University of Maryland, Baltimore, priority 2008, dated 2014).

B1: shAR3-1: lentivirus encoded shRNA specific for AR3 isoform, made using SEQ ID NOS: 13 and 14 (nucleic acid)
chain 1: TGTAATAGTGGTTACCACTCTTCAAGAGAGAGTGGTAACCACTATTACTTTTTTTTC
chain 2: TCGAGAAAAAAAAGTAATAGTGGTTACCACTCTCTCTTGAAGAGTGGTAACCACTATTACA

How the values were obtained:
AR = type: cell-based, human; conditions: LNCaP cells
Text: (H) LNCaP cells were infected with (+) or without (−) the lentivirus encoding AR shRNA (shAR) as described previously. At 6 hr postinfection, the cells were transfected with ARR2-Luciferase reporter along with AR3 or the codon-switched wild-type AR expressing vector (ARcs).
Briefly, cells grown in 24-well plates were transiently transfected with different plasmid constructs using LipofectAM1NE 2000 (Invitrogen) for LNCaP cells and FuGENE HI) (Roche) for COS-1 cells following the manufacturer's instruction. […] Dual-Luciferase assays were performed according to the protocol from the manufacturer (Promega).

80 kD ARs = experiment: Western blot with anti-AR after AR shRNAs in CWR-R1 cells; type: cell-based, human; conditions: 48 hr post infection
Text: FIGS. 1A-H: Cloning of novel alternative splice AR isoforms. (A) Presence of the short forms of AR in prostate cancer cells. Total cell lysates of different prostate cancer cells were blotted with anti-AR (441) antibody (upper) and anti-Actin antibody (lower). (B) Selective knockdown of AR long/short forms by AR shRNAs. CWR-R1 cells were infected with the lentivirus encoding AR shRNAa, AR shRNAb, and AR shRNAc (shARa, shARb and shARc) targeting different exons of AR as indicated in (D). At 48 hr post infection, the total cell lysates were subjected to western blot with anti-AR antibody. The same blot was stained with Coomassie Blue to show the protein loading (right panel). (C) Presence of AR isoform transcripts in CWR-R1 cells. Total RNA was isolated from CWR-R1 cells and reverse transcribed. The primer derived from AR shRNAc sequence was used to perform a rapid amplification of cDNA 3′-end (3′-RACE) with the RACE oligo-dT primer or a control primer. (D) Schematic structure of the human AR splice variants. The hatched cassettes stand for the cryptic exons. Solid thick lines represent the transcribed sequences. (E) Expression of AR isoforms in prostate cancer cells. The relative expression levels of AR, AR3, AR4 and AR5 were quantified using real-time PCR with the isoform specific primer pair sets described in Methods (left panel). The AR level in LNCaP cells was arbitrarily set as 1. The expression levels of AR3 in LNCaP and C-8 1 cells were further plotted with a higher resolution. *p<0.05 (right panel). (F) Transcriptional activity of AR isoforms. COS-1 cells were transfected with ARR.2-luciferase reporter gene together with AR, AR3, AR4 and AR5 expression vector. At 24 hr posttransfection, the cells were lysed and the luciferase activity was measured. The data were expressed as relative promoter activity, the changes of luciferase activity relative to the untreated control (arbitrarily set as 1). (G) COS-1 cells were transfected with ARR2-Luciferase reporter along with increasing doses of AR3 or AR expressing vector. […]

CWR-R1 cells = experiment: In vitro cell growth assay in androgen-depleted condition; type: cell-based, human; conditions: CWR-R1, 2 weeks culture, Coomassie Blue staining
Experimental: (§1) FIGS. 4A-D: AR3 promotes androgen-independent growth of prostate cancer cells. LNCaP cells were infected with lentivirus encoding AR3 expression construct (AR3) or the control vector. After 2-week culture in androgen-depleted condition, the cells were visualized by Coomassie Blue staining (A). At 48 hr post infection, the cells were injected into the castrated SCID mice and the growth of the tumor cells were monitored weekly. The result represent the mean tumor volume±SE (n=5 mice/group), *p<0.05 Inset, Western blots of anti-AR3 and anti-AR of the LNCaP xenograft tumor lysates (B). CWR-R1 and 22Rv1 cells were infected with lentivirus encoding AR3 shRNA-1 (shAR3) or control shRNA (shCon). After 2 weeks culture in androgen-depleted condition, the cells were visualized by Coomassie Blue staining (C). At 48 hr postinfection, the cells were injected into the castrated male nude mice. The growth of the tumors was monitored weekly. The result represents the mean tumor volume±SE (n=5 mice/group), *p<0.05 (D). […]
(§2) In vitro cell growth assay and In vivo tumor growth in xenograft models LNCaP, CWR-R1 and 22Rv1 cells were infected with the lentiviruses bearing the shRNA sequences and the AR3 expression constructs as indicated. […] The volumes of the tumors formed on both sides were measured weekly and calculated by using the formula: 0.5236×r1^2×r2 (r1<r2). […]

22Rv1 cells = experiment: as above; type: cell-based, human; conditions: 22Rv1, 2 weeks culture, Coomassie Blue staining
Experimental: as §1, §2

22Rv1 xenograft = experiment: In vivo tumor growth in xenograft model, castrated male nude mice; conditions: 22Rv1 cells infected 48 hr before s.c. injection
Experimental: as §1, §2

CWR-R1 xenograft = experiment: as above; conditions: CWR-R1 cells infected 48 hr before s.c. injection
Experimental: as §1, §2

| Molecule | activity of endogenous AR or codon-switched wild-type AR (luciferase reporter) (AR) | knock-down of 80 kD ARs (80 kD ARs) | further results |
| --- | --- | --- | --- |
| C[C@]12CCC(=O)C[C@@H]1CC[C@@H]1[C@@H]2CC[C@]2(C)[C@@H](O)CC[C@@H]12 [DHT] | induced |  |  |
| CC(O)(CS(=O)(=O)c1ccc(F)cc1)C(=O)Nc1ccc(C#N)c(C(F)(F)F)c1 (stereo not drawn) [casodex] | blocked |  |  |
| shARa: shRNA specific for human AR gene, lentiviral pLKO.1-puro vector from Sigma, targeting Exon 8, SEQ ID NO: 10 (CCGGCCTGCTAATCAAGTCACACATCTCGAGATGTGTGACTTGATTAGCAGGTTTTT) |  | barely affected |  |
| shARb: shRNA specific for human AR gene, lentiviral pLKO.1-puro vector from Sigma, targeting Exon 5, SEQ ID NO: 11 (CCGGCACCAATGTCAACTCCAGGATCTCGAGATCCTGGAGTTGACATTGGTGTTTTT) |  | barely affected |  |
| shARc: shRNA specific for human AR gene, lentiviral pLKO.1-puro vector from Sigma, targeting the 1st Exon, SEQ ID NO: 12 (CCGGCGCGACTACTACAACTTTCCACTCGAGTGGAAAGTTGTAGTAGTCGCGUTTT) |  | efficiently knocked down |  |
| B1 |  |  | cell growth in androgen-depleted medium (CWR-R1 cells): attenuated their growth; cell growth in androgen-depleted medium (22Rv1 cells): attenuated their growth; tumor growth in castrated nude mice (22Rv1 xenograft): attenuated their growth; tumor growth in castrated nude mice (CWR-R1 xenograft): attenuated their growth |
